Literature values, collected in paper PMC10200032 (Pharmacological Reports, 2023).
In brackets after ≈: the same amount, converted by molar mass.

Test system: CVB4
Conditions: reference drug in earlier benzoquinazoline studies

In the case of `NC(=O)c1ncn([C@@H]2O[C@H](CO)[C@@H](O)[C@H]2O)n1` [ribavirin], the “EC50 against CVB4” value is listed as 29 µg/mL (≈ 119 µM).
